Assay results reported in patent US9493468B2, “Antifungal 5,6-dihydro-4H-pyrrolo[1,2-a][1,4]benzo-diazepines and 6H-pyrrolo[1,2-a][1,4]benzodiazepines substituted with heterocyclic derivatives” (Janssen Pharmaceutica NV, priority 2011, dated 2016).

Columns and labels:
Format in all cases: cell-based
Microsporum canis = assay: Antifungal activity in vitro, resazurin growth inhibition: Microsporum canis (B68128)
Procedure, shortened: (§1)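 Resazurin conversion to fluorescent resorufin (ex 550/em 590 nm) served as the growth readout. Compounds spanned 2- or 4-fold serial dilutions with 64 μM top in-test concentration; inoculum 10^3 cfu per well in MOPS-buffered RPMI-1640 (pH 7.0, 2% glucose). Incubation species-dependent, dermatophytes at 27° C. for ≥1 week.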

Trichophyton rubrum = assay: Antifungal activity in vitro, resazurin growth inhibition: Trichophyton rubrum (B68183)
Procedure, shortened: as §1

Rhizomucor miehei = assay: Antifungal activity in vitro, resazurin growth inhibition: Rhizomucor miehei (IHEM13391)
Procedure, shortened: as §1

Aspergillus fumigatus = assay: Antifungal activity in vitro, resazurin growth inhibition: Aspergillus fumigatus (B42928)
Procedure, shortened: as §1

Cryptococcus neoformans = assay: Antifungal activity in vitro, resazurin growth inhibition: Cryptococcus neoformans (B66663)
Procedure, shortened: as §1

Scedosporium prolificans = assay: Antifungal activity in vitro, resazurin growth inhibition: Scedosporium prolificans (IHEM21157)
Procedure, shortened: as §1

Scedosporium apiospermum = assay: Antifungal activity in vitro, resazurin growth inhibition: Scedosporium apiospermum (IHEM3817)
Procedure, shortened: as §1

Rhizopus oryzae = assay: Antifungal activity in vitro, resazurin growth inhibition: Rhizopus oryzae (IHEM5223)
Procedure, shortened: as §1

Sporothrix schenkii = assay: Antifungal activity in vitro, resazurin growth inhibition: Sporothrix schenkii (B62482)
Procedure, shortened: as §1

[1] = test system: Trichophyton mentagrophytes; assay: Antifungal activity in vitro, resazurin growth inhibition: Trichophyton mentagrophytes (B70554)
Procedure, shortened: as §1

Candida parapsilosis = assay: Antifungal activity in vitro, resazurin growth inhibition: Candida parapsilosis (B66126)
Procedure, shortened: as §1

Row | SMILES | Inf. B: Microsporum canis B68128, pIC50 (Microsporum canis) | Inf. C: Trichophyton rubrum B68183, pIC50 (Trichophyton rubrum) | Inf. K: Rhizomucor miehei IHEM13391, pIC50 (Rhizomucor miehei) | Inf. E: Aspergillus fumigatus B42928, pIC50 (Aspergillus fumigatus) | Inf. F: Cryptococcus neoformans B66663, pIC50 (Cryptococcus neoformans) | Inf. I: Scedosporium prolificans IHEM21157, pIC50 (Scedosporium prolificans) | Inf. H: Scedosporium apiospermum IHEM3817, pIC50 (Scedosporium apiospermum) | Inf. J: Rhizopus oryzae IHEM5223, pIC50 (Rhizopus oryzae) | Inf. A: Sporothrix schenkii B62482, pIC50 (Sporothrix schenkii) | Inf. G: Trichophyton mentagrophytes B70554, pIC50 [1] | Inf. D: Candida parapsilosis B66126, pIC50 (Candida parapsilosis)
1 | Cc1ccc2cc(C3=NCc4ccccc4-n4cccc43)oc2c1 [Compound 137] | 6.81 | 7.18 | 4.50 | 6.00 | 5.10 | 6.21 | 5.16 | 4.48 | 5.52 | 6.89 | 4.74
2 | Clc1cccc2c1-n1cccc1C(c1ccc3sccc3c1)=NC2 [Compound 174] | 6.54 | 6.87 | <4.19 | 6.30 | 6.43 | 4.80 | <4.19 | <4.19 | 6.06 | 6.80 | <4.19
3 | Clc1cccc2c1CN=C(c1ccc3ncsc3c1)c1cccn1-2 [Compound 184] | 6.70 | 7.32 | <4.19 | 6.27 | <4.19 | 6.15 | <4.19 | <4.19 | <4.19 | 6.51 | <4.19
4 | Cc1nc2cc(C3=NCc4c(Cl)cccc4-n4cccc43)ccc2s1 [Compound 191] | 5.69 | 6.18 | <4.19 | 5.42 | 5.00 | 6.35 | 4.88 | <4.19 | 4.75 | 5.80 | <4.19
5 | Fc1ccc2oc(C3NCc4c(Cl)cccc4-n4cccc43)cc2c1 (racemic) [Compound 47] | 5.84 | 6.25 | 4.81 | 4.91 | <4.19 | 6.38 | 6.03 | <4.19 | <4.19 | 5.08 | <4.19
6 | CCc1ccc(C2=NCc3c(Cl)cc(Cl)cc3-n3cccc32)cn1 [Compound 76] | 6.34 | 5.75 | 4.49 | 4.72 | 4.82 | 5.46 | 5.07 | <4.19 | 4.46 | 5.00 | <4.19
